Biological target: T1, BAF/3 cells expressing human CXCR2 (Homo sapiens, UniProt P25025)
T1 construct: expressed in transfected cells; host or cells: BAF/3 cells
T1 sequence (P25025 1-360): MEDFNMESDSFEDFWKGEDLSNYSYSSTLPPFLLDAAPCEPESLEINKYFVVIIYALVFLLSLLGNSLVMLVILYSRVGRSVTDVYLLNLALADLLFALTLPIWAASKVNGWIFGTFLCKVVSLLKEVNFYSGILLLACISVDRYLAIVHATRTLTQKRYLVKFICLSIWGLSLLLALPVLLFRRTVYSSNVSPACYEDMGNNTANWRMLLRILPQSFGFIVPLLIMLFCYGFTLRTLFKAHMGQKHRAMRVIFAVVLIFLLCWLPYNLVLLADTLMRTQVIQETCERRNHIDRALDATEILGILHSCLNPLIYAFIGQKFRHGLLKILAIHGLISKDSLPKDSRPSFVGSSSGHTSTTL
Experiment: Chemotaxis assay 1, transfected cell line: inhibition of CXCL1 induced chemotaxis
Type: cell-based
Conditions: inhibition of CXCL1 (3 nM) induced chemotaxis of BAF/3 cells expressing human CXCR2; 4 hours incubation
Method: Chemotaxis assay 1, transfected cell line: This assay measures the inhibition of CXCL1 induced chemotaxis of BAF/3 cells expressing human CXCR2. For each assay point, 100 μL of a 3×10^6/mL cell suspension are incubated with 1 μL of test compound diluted in DMSO. The bottom wells of a chemotaxis plate (5 μm pore size, Neuroprobe) is filled with 305 μL of chemotaxis buffer (RPMI 1640 medium (phenol red free), containing 2% fetal calf serum) and 3 nM CXCL1. The 5 μm pore membrane is applied onto the chemotaxis plate and 80 μL of the cell suspension is cautiously pipetted onto the membrane. The lid is put on the chemotaxis plate and the plate is incubated for 4 hours in an incubator (37° C., 5% CO2). For quantification of migrated cells, the cell suspension and the lid are removed and 100 μL from the bottom chamber are transferred to an Opti plate 96 (Perkin Elmer). 100 μL of substrate solution (provided by Cell Titer Glo kit, Promega) are added. This method uses the measurement of ATP present in metabolically active cells. After 10 min incubation at room temperature the plate is measured at Luminoscan for quantification of ATP-dependent generation of oxyluciferin. IC50s of the tested compound are calculated by non-linear regression and using a sigmoidal dose-response curve as fitting algorithm (provided by GraphPadPrism). Determination of a bottom value is performed by quantification of migration of buffer treated cells, migrating towards buffer only. Determination of a top value is performed by quantification of migration of buffer treated cells, migrating towards CXCL1.

| Compound | IC50 [nM] |
| --- | --- |
| O=C(Nc1ccccc1Br)Nc1cccc(C(=O)N2CCC3(CCNC3=O)CC2)c1O [Example 1] | 597 |
| O=C(Nc1cccc(C(=O)N2CCC3(CCNC3=O)CC2)c1O)Nc1cccc(Cl)c1Cl [Example 3] | 634 |
| O=C(Nc1cccc(C(=O)N2CCC3(CCNC3=O)CC2)c1O)Nc1cccc(F)c1Cl [Example 4] | 34 |
| O=C(Nc1ccccc1Br)Nc1cccc(C(=O)N2CCN3CCCC3C2)c1O (centres unmarked) [Example 5] | 377 |
| O=C(Nc1cccc(C(=O)N2CCN3CCCC3C2)c1O)Nc1cccc(Cl)c1Cl (centres unmarked) [Example 7] | 2570 |
| O=C(Nc1ccccc1Br)Nc1cccc(C(=O)N2CCN3CCC[C@@H]3C2)c1O [Example 8] | 651 |
| O=C(Nc1cccc(C(=O)N2CCN3CCC[C@@H]3C2)c1O)Nc1cccc(F)c1Cl [Example 9] | 22 |
| O=C(Nc1ccccc1Br)Nc1cccc(C(=O)N2CCN3CCC[C@H]3C2)c1O [Example 10] | 260 |
| O=C(Nc1cccc(C(=O)N2CCN3CCC[C@H]3C2)c1O)Nc1cccc(F)c1Cl [Example 11] | 41 |
| O=C(Nc1ccccc1Br)Nc1cccc(C(=O)N2CCN3C(=O)CCC3C2)c1O (centres unmarked) [Example 12] | 119 |
| O=C(Nc1cccc(C(=O)N2CCN3C(=O)CCC3C2)c1O)Nc1cccc(Cl)c1Cl (centres unmarked) [Example 13] | 47 |
| O=C(Nc1cccc(C(=O)N2CCN3C(=O)CCC3C2)c1O)Nc1cccc(F)c1Cl (centres unmarked) [Example 14] | 11 |
| O=C(Nc1cccc(C(=O)N2CC(=O)N3CCCC3C2)c1O)Nc1cccc(F)c1Cl (centres unmarked) [Example 15] | 86 |
| O=C(Nc1ccccc1Br)Nc1cccc(C(=O)N2CC(=O)N3CCCC3C2)c1O (centres unmarked) [Example 16] | 85 |
| O=C(Nc1cccc(C(=O)N2CCN3CCOCC3C2)c1O)Nc1cccc(F)c1Cl (centres unmarked) [Example 17] | 1.2 |
| O=C(Nc1cccc(C(=O)N2CCN3C(=O)COC[C@H]3C2)c1O)Nc1cccc(F)c1Cl [Example 18] | 11 |
| O=C(Nc1cccc(C(=O)N2CCN3C(=O)COC[C@@H]3C2)c1O)Nc1cccc(F)c1Cl [Example 19] | 50 |
| CCC(Nc1c(Nc2cccc(C(=O)N3CCN4CCCC4C3)c2O)c(=O)c1=O)c1ccccc1 (centres unmarked) [Example 20] | 16 |
| O=C(c1cccc(Nc2c(Nc3cccc(F)c3Cl)c(=O)c2=O)c1O)N1CCN2CCCC2C1 (centres unmarked) [Example 21] | 8 |
| O=C(c1cccc(Nc2c(Nc3ccccc3Br)c(=O)c2=O)c1O)N1CCN2CCCC2C1 (centres unmarked) [Example 22] | 1.5 |
| CC[C@H](Nc1c(Nc2cccc(C(=O)N3CCN4CCC[C@@H]4C3)c2O)c(=O)c1=O)c1ccccc1 [Example 23] | 2740 |
| CC[C@@H](Nc1c(Nc2cccc(C(=O)N3CCN4CCC[C@@H]4C3)c2O)c(=O)c1=O)c1ccccc1 [Example 24] | 3.2 |
| CC[C@H](Nc1c(Nc2cccc(C(=O)N3CCN4CCC[C@H]4C3)c2O)c(=O)c1=O)c1ccccc1 [Example 25] | 1350 |
| CC[C@@H](Nc1c(Nc2cccc(C(=O)N3CCN4CCC[C@H]4C3)c2O)c(=O)c1=O)c1ccccc1 [Example 26] | 3.9 |
| CC[C@@H](Nc1c(Nc2cccc(C(=O)N3CCN4CCC[C@H]4C3)c2O)c(=O)c1=O)c1ccc(C)o1 [Example 27] | 0.1 |
| CC[C@@H](Nc1c(Nc2cccc(C(=O)N3CCN4CCC[C@H]4C3)c2O)c(=O)c1=O)c1ccc(C(F)(F)F)o1 [Example 28] | 40 |
| CCC(Nc1c(Nc2cccc(C(=O)N3CCC4(CCNC4=O)CC3)c2O)c(=O)c1=O)c1ccccc1 (centres unmarked) [Example 29] | 4.1 |

| Compound | IC50 [nM] |
| --- | --- |
| CC[C@@H](Nc1c(Nc2cccc(C(=O)N3CCN4C(=O)CCC4C3)c2O)c(=O)c1=O)c1ccccc1 (some centres unmarked) [Example 30] | 267 |
| CC[C@@H](Nc1c(Nc2cccc(C(=O)N3CC(=O)N4CCCC4C3)c2O)c(=O)c1=O)c1ccccc1 (some centres unmarked) [Example 31] | 662 |
| CC[C@@H](Nc1c(Nc2cccc(C(=O)N3CCS(=O)(=O)C4(CCNC4=O)C3)c2O)c(=O)c1=O)c1ccccc1 (some centres unmarked) [Example 32] | 401 |
| CC[C@@H](Nc1c(Nc2cccc(C(=O)N3CCC4(CCNC4=O)CC3)c2O)c(=O)c1=O)c1ccccc1 [Example 34] | 126 |
| CC[C@@H](Nc1c(Nc2cccc(C(=O)N3CCN4CCOCC4C3)c2O)c(=O)c1=O)c1ccccc1 (some centres unmarked) [Example 35] | 16 |
| CC[C@@H](Nc1c(Nc2cccc(C(=O)N3CC4(COC4)C3)c2O)c(=O)c1=O)c1ccccc1 [Example 36] | 25 |
| CC[C@@H](Nc1c(Nc2cccc(C(=O)N3CCC4(CCCC4)CC3)c2O)c(=O)c1=O)c1ccccc1 [Example 37] | 26 |
| CC[C@@H](Nc1c(Nc2cccc(C(=O)N3CCN4C(=O)COC[C@@H]4C3)c2O)c(=O)c1=O)c1ccccc1 [Example 38] | 3.4 |
| CC[C@@H](Nc1c(Nc2cccc(C(=O)N3CC4OC(C)(C)C[C@@H]4[C@H]3C(=O)OC)c2O)c(=O)c1=O)c1ccccc1 (some centres unmarked) [Example 39] | 23 |
| CC[C@@H](Nc1c(Nc2cccc(C(=O)N3CC4OC(C)(C)C[C@@H]4[C@H]3CO)c2O)c(=O)c1=O)c1ccccc1 (some centres unmarked) [Example 40] | 34 |
| CC[C@@H](Nc1c(Nc2cccc(C(=O)N3CCC4C(=O)NCCC43)c2O)c(=O)c1=O)c1ccccc1 (some centres unmarked) [Example 41] | 66 |
| CC[C@@H](Nc1c(Nc2cccc(C(=O)N3CCO[C@@H]4CNC[C@H]43)c2O)c(=O)c1=O)c1ccccc1 [Example 42] | 45 |
| CC[C@@H](Nc1c(Nc2cccc(C(=O)N3CCO[C@@H]4CN(C)C[C@H]43)c2O)c(=O)c1=O)c1ccccc1 [Example 43] | 11 |
| CC[C@@H](Nc1c(Nc2cccc(C(=O)N3CCC4(CC3)COCC(=O)N4)c2O)c(=O)c1=O)c1ccccc1 [Example 44] | 2130 |
| CC[C@@H](Nc1c(Nc2cccc(C(=O)N3CC4OCCN(C)C4C3)c2O)c(=O)c1=O)c1ccccc1 (some centres unmarked) [Example 45] | 3.3 |
| CC[C@@H](Nc1c(Nc2cccc(C(=O)N3CCN4CCOC[C@H]4C3)c2O)c(=O)c1=O)c1ccccc1 [Example 46] | 51 |
| CC[C@@H](Nc1c(Nc2cccc(C(=O)N3CCN4C(CCS4(=O)=O)C3)c2O)c(=O)c1=O)c1ccccc1 (some centres unmarked) [Example 47] | 818 |
| CC[C@@H](Nc1c(Nc2cccc(C(=O)N3CCN4C(=O)CCC4C3)c2O)c(=O)c1=O)c1ccc(C(F)(F)F)o1 (some centres unmarked) [Example 48] | 859 |
| CC[C@@H](Nc1c(Nc2cccc(C(=O)N3CCN4CCNC(=O)C4C3)c2O)c(=O)c1=O)c1ccccc1 (some centres unmarked) [Example 49] | 926 |
| CC[C@@H](Nc1c(Nc2cccc(C(=O)N3CCC4(CCNC4=O)CC3)c2O)c(=O)c1=O)c1ccc(C)o1 [Example 50] | 1850 |
| O=C(c1cccc(Nc2c(Nc3cccc(F)c3Cl)c(=O)c2=O)c1O)N1CCN2CCCCC2C1 (centres unmarked) [Example 51] | 247 |
| O=C(c1cccc(Nc2c(Nc3cccc(F)c3Cl)c(=O)c2=O)c1O)N1CCC2(CCNC2=O)CC1 [Example 52] | 6.2 |
| O=C(c1cccc(Nc2c(Nc3cccc(F)c3Cl)c(=O)c2=O)c1O)N1CC2(COC2)C1 [Example 53] | 360 |
| O=C(c1cccc(Nc2c(Nc3cccc(F)c3Cl)c(=O)c2=O)c1O)N1CCN2CCOCC2C1 (centres unmarked) [Example 54] | 67 |
| O=C1NCCC2C1CCN2C(=O)c1cccc(Nc2c(Nc3cccc(F)c3Cl)c(=O)c2=O)c1O (centres unmarked) [Example 55] | 617 |
| O=C(c1cccc(Nc2c(Nc3cccc(F)c3Cl)c(=O)c2=O)c1O)N1CC(=O)N2CCCC2C1 (centres unmarked) [Example 56] | 865 |
